These results are taken from ChEMBL document CHEMBL1201862, “PubChem BioAssay data set” (2004).

Assay [1] addresses T1, Corticotropin-releasing factor receptor 2/Corticotropin-releasing factor-binding protein (Homo sapiens, UniProt P24387+Q13324).
T1 sequence (Q13324 whole entry): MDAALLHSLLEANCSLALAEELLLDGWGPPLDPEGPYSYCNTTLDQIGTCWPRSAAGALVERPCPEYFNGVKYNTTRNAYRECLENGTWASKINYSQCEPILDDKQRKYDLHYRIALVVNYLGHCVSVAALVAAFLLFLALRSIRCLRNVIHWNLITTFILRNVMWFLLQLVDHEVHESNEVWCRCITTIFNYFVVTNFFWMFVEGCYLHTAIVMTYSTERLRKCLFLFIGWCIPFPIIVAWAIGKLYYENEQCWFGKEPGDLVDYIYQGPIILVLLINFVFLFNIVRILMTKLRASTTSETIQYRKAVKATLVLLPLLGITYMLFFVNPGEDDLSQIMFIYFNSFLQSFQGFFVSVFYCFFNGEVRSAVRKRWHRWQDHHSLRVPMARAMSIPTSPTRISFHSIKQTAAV
T1 sequence (P24387 whole entry): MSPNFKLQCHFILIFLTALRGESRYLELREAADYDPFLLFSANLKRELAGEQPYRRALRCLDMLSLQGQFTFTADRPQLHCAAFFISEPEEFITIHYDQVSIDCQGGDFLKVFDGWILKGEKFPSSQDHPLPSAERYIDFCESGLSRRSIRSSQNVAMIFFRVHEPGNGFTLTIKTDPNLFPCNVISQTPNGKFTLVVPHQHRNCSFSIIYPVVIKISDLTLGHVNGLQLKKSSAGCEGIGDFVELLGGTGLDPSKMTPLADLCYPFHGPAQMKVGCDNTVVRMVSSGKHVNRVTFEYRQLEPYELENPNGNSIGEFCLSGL
The experiment in a line: activators of CRF receptor 2 with binding protein – uHTS hits, confirmation (AID 602473). The class given is functional. Conditions: read-out: EC50_Mean.

The target in assay [2] is T1, Corticotropin-releasing factor receptor 2/Corticotropin-releasing factor-binding protein. The experiment in a line: Dose Response confirmation of uHTS hits for small molecule antagonists of the CRF-binding protein and CRF-R2 receptor complex. The class given is functional. Conditions: read-out: IC50_Mean.

Activity calls are given as the source filed them.

For the compound `COC(=O)c1ccc2nc3c(cc2c1)[C@@H]1CCN2C(=O)CCC[C@H](C3)[C@H]12`, the EC50 in assay [1] was > 53 µM (inactive). Also, in assay [2], the IC50 was > 47.1 µM (inactive).
On the same counts, the results for `COCCn1c(-c2ccsc2)nc2c1c(=O)[nH]c(=O)n2CC(C)C` are > 53 µM (inactive) and > 47.1 µM (inactive).
As to `CCCCNc1nc(CC)c2c(c1C#N)CCCC2`, in assay [1], the EC50 is > 53 µM (inactive). Moreover, the IC50 in assay [2] was > 47.1 µM (inactive).
Take `CC1=C(C(=O)OCc2ccccc2)C(/C=C/c2ccccc2)N2C(=O)CCSC2=N1` (stereo not drawn): the EC50 in assay [1] is > 53 µM (inactive). In assay [2], the IC50 is > 47.1 µM (inactive).
On to `Cc1ccc(C(=O)COC(=O)CCN2C(=O)C3C4C=CC(C5CC45)C3C2=O)cc1` (stereo not drawn), for which, in assay [1], the EC50 is > 53 µM (inactive). Further, in assay [2], the IC50 was > 47.1 µM (inactive).
Regarding `CCOC(=O)c1nnn(CC(=O)N2N=C(c3ccccc3)CC2c2ccccc2)c1C(=O)OCC` (stereo not drawn), the EC50 in assay [1] is > 53 µM (inactive). Moreover, the IC50 in assay [2] is > 47.1 µM (inactive).
Turning to `COC(=O)c1ccc(Cc2ccccc2)o1`, in assay [1], the EC50 was > 53 µM (inactive). The IC50 in assay [2] is > 47.1 µM (inactive).
On the same counts, the results for `CC1CCCC(C)N1C(=O)COC(=O)c1cccs1` (stereo not drawn) are > 53 µM (inactive) and > 47.1 µM (inactive).
For the compound `CCOC(=O)c1cccc(NS(=O)(=O)Cc2ccccc2)c1`, in assay [1], the EC50 was > 53 µM (inactive). In addition, the IC50 in assay [2] is > 47.1 µM (inactive).
